Converted amounts (≈) assume the structure as drawn. Where a name gives a salt, the structure may show the parent alone. Read-outs that look alike come from different tables or passages of the source.
Legend:
[1] = system: Escherichia coli A 223; test: in vitro bacteriostatic action, solid medium, dilutions method; assay type: cell-based; details: A223, not producing lactamases, read-out: minimum inhibitor concentration (MIC)
Method: (§1) The in vitro bacteriostatic action was determined in a solid medium by the dilutions method. The study was directed to Gram^+ and Gram^- strains of which several are known for producing β lactamases.
(§2) The results are expressed in the minimum inhibitor concentrations (MIC--μg/ml).

[2] = system: Escherichia coli R 69/2 TEM; test: as above; assay type: cell-based; details: R69/2TEM, read-out: minimum inhibitor concentration (MIC)
Method: as §1, §2

[3] = system: Escherichia coli SOL RL 90; test: as above; assay type: cell-based; details: SOLRL90, producing lactamases, read-out: minimum inhibitor concentration (MIC)
Method: as §1, §2

[4] = system: Klebsiella pneumoniae IP E 55; test: as above; assay type: cell-based; details: IPE55, not producing lactamases, read-out: minimum inhibitor concentration (MIC)
Method: as §1, §2

[5] = system: Klebsiella pneumoniae RO 30; test: as above; assay type: cell-based; details: RO30, producing lactamases, read-out: minimum inhibitor concentration (MIC)
Method: as §1, §2

[6] = system: Staphylococcus aureus Smith; test: as above; assay type: cell-based; details: not producing lactamases, read-out: minimum inhibitor concentration (MIC)
Method: as §1, §2

[7] = system: Escherichia coli SOL RL 90; test: therapeutic efficacy in septicaemia provoked in the mouse by Escherichia coli SOL RL 90; assay type: in vivo; details: SOLRL90, sc, 96 h, read-out: DE 50 (median effective dose, ED 50)
Method: The therapeutic efficacy of the products is determined in the septicaemic model of the mouse.
Septicaemia is provoked by intraperitoneal inoculation of 0.5 ml of an appropriate dilution of suspension of the strain E.coli Sol. RL 90 producing cephalosporinase.
The products are administered in solution in a phosphate buffer pH 7.0 in a volume of 0.2 ml by the sub-cutaneous route and at a rate of 5 doses (mg of product per kg of live weight of mouse) to batches of 10 mice 1 hour and 5 hours after inoculation of the germ.
After 4 days of observation during which the mortality is noted, the median effective doses (ED 50) are calculated by the Muench and Reed method.

[8] = solubility in a buffer solution; assay type: physicochemical; details: pH 7, aqueous buffer; buffer solution having a pH of 7
From the text: The pharmaceutical compositions are made from compounds (I) in their acid form or, when their solubility is insufficient, in the form of a salt.

| SMILES | MIC [1] [µg/mL] | MIC [2] [µg/mL] | MIC [3] [µg/mL] | MIC [4] [µg/mL] | MIC [5] [µg/mL] | MIC [6] [µg/mL] | ED50 [7] [mg/kg] | ED50 ([7]; mouse septicaemia, sub-cutaneous, 1 hour and 5 hours after inoculation, 4 days of observation, Muench and Reed method) [mg/kg] | solubility [8] [mg/mL] |
| --- | --- | --- | --- | --- | --- | --- | --- | --- | --- |
| CO/N=C(\C(=O)NC1C(=O)N2C(C(=O)O)=C(CSC(=O)c3cccs3)CSC12)c1csc(N)n1 (stereo not drawn) [31 917, syn isomer [(amino-2 thiazolyl-4)-2 methoxyimino-2 acetamido]-7 (thienyl-2 carbonylthiomethyl)-3 cepheme-3 4-carboxylic acid] | 0.5 (≈ 0.927 µM) | 0.5 (≈ 0.927 µM) | 2 (≈ 3.71 µM) | 1 (≈ 1.85 µM) | 8 (≈ 14.8 µM) | 0.25 (≈ 0.463 µM) | 3.6 |  |  |
| CO/N=C(\C(=O)NC1C(=O)N2C(C(=O)O)=C(CSC(=O)c3ccco3)CSC12)c1csc(N)n1 (stereo not drawn) [31 916, Syn isomer [(amino-2 thiazolyl-4)-2 methoxyimino-2 acetamido]-7 (furyl-2 carbonylthiomethyl)-3 cepheme-3 4-carboxylic acid] | 0.5 (≈ 0.955 µM) | 0.25 (≈ 0.477 µM) | 2 (≈ 3.82 µM) | 1 (≈ 1.91 µM) | 8 (≈ 15.3 µM) | 0.25 (≈ 0.477 µM) |  | 5.4 |  |
| CO/N=C(\C(=O)NC1C(=O)N2C(C(=O)O)=C(CSC(=O)c3ccco3)CSC12)c1csc(N)n1 (stereo not drawn) [sodium salt of compound CM 31916] |  |  |  |  |  |  |  |  | > 200 |

Source: patent US4464367A, “Cephalosporin derivatives, process for preparation thereof and drugs containing said derivatives usable as antibiotics” (Sanofi, priority 1980, dated 1984)
